Data: patent US6458557B1, “Enhancing growth in gram-positive microorganisms using formate supplementation and inactivation of formate-associated transport proteins” (Genencor International, Inc., priority 1997, dated 2002)

Assays:
[1] = tested on: Bacillus subtilis (BG125); test: Bactericidal tests of pH and formate (cell viability by plating); assay type: cell-based
Procedure: (§1) The Bacillus subtilis strain used was a derivative of I168 called BG125 (hisA1 thr5 trpC2) provided by J. A. Hoch. […] MM294 competent cells (Ausubel et al. 1992, Short Protocols in Molecular Biology. John Wiley and Sons, New York) were used for plasmid construction and propagation. LB broth and agar were used for growing MM294 cells and were supplemented with 50 ug/ml carbenicillin for selection. BG125 was grown on LB agar or in LB liquid medium supplemented with 10 μg/ml of kanamycin for selection.
(§2) Prior to shake flask experiments BG125 was grown from frozen stocks onto LB agar and grown overnight at 37° C. Cells were removed from the plates to 6 mls of SBG1% in test-tubes and grown at 37° C. for three hours. 0.2 mls of the seed culture was used to inoculate a pre-warmed 300 ml nephlometer flask containing 20 mls of the appropriate media. Flasks were incubated at 37° C. (except where indicated) and 300 rpm in a New Brunswick Scientific Shaker. At the indicated time points, the amount of cell growth was determined by a Klett-Summerson Photoelectric Colorimeter, the pH of the flask was taken using a Corning pH/iometer, and 1.25 mls was removed for further processing. The sample was spun in an eppendorf microfuge and 1 ml of supernatant was removed and mixed with 30 μls of perchloric acid HPLC analysis. The remaining supernatant was saved for glucose analysis. All samples were stored at −70° C. until analysis. Medium pH titrations were performed by the stepwise addition of HCl followed by pH measurement. The bactericidal tests of pH and formate on B. subtilis were carried out by growing BG125 as described above in SBG1% to a density of 5×10^6 cfu/ml. The cells were then adjusted to a concentration of 5×10^4 cfu/ml with buffered SBG1% adjusted to the pH indicated, with and without 50 mM formate. Cultures were then incubated at 37° C. with shaking for 3 hours. Samples were taken at 0, 1 2 and 3 hours, serially diluted and plated to LB at 37° C. for determination of cell viability.

[2] = tested on: BG125 with ywcJ (FTAP 2) gene interruption; test: Shake flask growth of BG125 with interruption of ywcJ (FTAP 2); assay type: cell-based, Bacillus subtilis; conditions: 1% SBG, 3 g/l formate, ywcJ (FTAP 2) interruption (FIG. 17)
Text: (§3) The PCR product was digested with BamHI and PstI and ligated with the 5.3-Kb BamHI-PstI fragment from plasmid pUC/Ts/Kan to construct the yrhG-homologue interruption plasmid pTRANS1. […] The PCR product was digested with BamHI and PstI and ligated with the 5.3-Kb BamHI-PstI fragment from plasmid pUC/Ts/Kan to construct the ywcJ-homologue interruption plasmid. […] The sequencing primers used were the mp19/pUC19 24-mer reverse sequencing primer and the mp19/pUC19 24-mer sequencing primer from New England Biolabs.
(§4) Resulting kanamycin resistant transformants were grown overnight in LB liquid medium containing kanamycin at 45° C. Integrants were plated and then colony purified on LB plates containing kanamycin at 45° C. Isolated colonies were then frozen in LB liquid medium plus 30% glycerol at −70° C. for preservation.
(§5) Prior to shake flask experiments BG125 was grown from frozen stocks onto LB agar and grown overnight at 37° C. Cells were removed from the plates to 6 mls of SBG1% in test-tubes and grown at 37° C. for three hours. 0.2 mls of the seed culture was used to inoculate a pre-warmed 300 ml nephlometer flask containing 20 mls of the appropriate media. Flasks were incubated at 37° C. (except where indicated) and 300 rpm in a New Brunswick Scientific Shaker. […]

[3] = tested on: Bacillus subtilis (BG125); test: Shake flask growth of BG125 in 1% SBG (Klett reading and flask pH); assay type: cell-based; conditions: for growth in shake flask compared to other flasks: 1% SBG pH 7, 37° C., 3 g/l (44 mM) sodium formate and/or 80 mM MOPS (FIG. 5)
Procedure: as §1
Trimethaprim was dissolved in 50% ethanol and added to a final concentration of 50 ug/ml where indicated when the growth had reached a Klett reading between 20-30 units. The additions for trimethaprim experiments were added at the following final concentrations: 10 ug/ml glycine, 10 ug/ml methionine, 50 ug/ml thymidine, 20 ug/ml adenosine, and 20 ug/ml guanosine.
as §2

[4] = tested on: BG125 with yrhG (FTAP 1) gene interruption; test: Shake flask growth of BG125 with interruption of yrhG (FTAP 1); assay type: cell-based, Bacillus subtilis; conditions: 1% SBG, 3 g/l formate
Text: as §3, §4, §5

[5] = Medium pH titration by stepwise addition of HCl; assay type: physicochemical; conditions: 1% SBG with 3 g/l sodium formate or 80 mM MOPS, HCl added (FIG. 6)
Procedure: as §2, with “At the indicated time points, the amount of cell growth was determined by a Klett-Summerson Photoelectric Colorimeter, the pH of the flask was taken using a Corning pH/iometer, and 1.25 mls was removed for further processing.” left out

[6] = tested on: Bacillus subtilis (BG125); test: Metabolic by-products (HPLC) and glucose in shake flask supernatants; assay type: cell-based; conditions: flasks of FIG. 5: 3 g/l sodium formate, 80 mM MOPS; control about 1.5 g/L
Procedure: as §2, with “At the indicated time points, the amount of cell growth was determined by a Klett-Summerson Photoelectric Colorimeter, the pH of the flask was taken using a Corning pH/iometer, and 1.25 mls was removed for further processing.” left out

In the case of O=C[O-].[Na+] [sodium formate, Sodium formate], the loss of viability ([1]; pH 3.6, 50 mM formate, also without formate) is reported as “lost complete viability within two hours”, the “percent of survivors based on the initial titer” value ([1]; pH 3.6, one hour, 50 mM formate, 1.8 % without formate) is reported as 0.13% and the percent survivors ([1]; pH 4.0, 3 hours, 50 mM formate, 38 % without formate) is reported as 1.2%. For the same compound, the viability ([1]; pH 4.6, 50 mM formate) was “no decline in viability”, the viability ([1]; pH 7.0, 50 mM formate) was “no decline of viability” and the “effect of formate on growth of interrupted strain” value [2] was “toxic effect which caused a decline of growth well below growth of the control strain with out formate”. For the same compound, the “growth in shake flask compared to other flasks” value [3] was “more total growth”, the “lag in the initial growth rate” value ([3]; 3 g/l sodium formate, 1% SBG) was “slight lag” and the “rate of growth when formate was added” value ([3]; flask containing trimethaprim and growth enhancing additives (FIG. 11)) was “significantly reduced”. For the same compound, the “duration of the initial lag period” value ([3]; higher concentrations of sodium formate, up to 21 g/l (FIG. 7)) was “correlation between increasing concentrations of formate and the duration of the initial lag period”, the “culture density reached after the lag period” value ([3]; sodium formate up to 21 g/l (FIG. 7), versus control flask) was “reached higher densities than the control flask” and the “decrease in the growth enhancement normally seen with exogenous formate” value ([4]; yrhG (FTAP1) interruption (FIG. 16)) was about 50%. For the same compound, the “growth enhancement effect of formate in interrupted strain” value ([4]; yrhG interruption (FIG. 16)) was “reduced the normal growth enhancement effect of formate by half” and the “buffering activity in pH titration” value [5] was “little buffering activity down to pH 5.0”.
With COc1cc(Cc2cnc(N)nc2N)cc(OC)c1OC [trimethaprim, Trimethaprim, reference compound] the “effect on growth compared to SBG1% alone” value ([3]; trimethaprim 50 ug/ml added at Klett 20-30, SBG1% (FIG. 11)) was “inhibitory effect”.
In the case of O=S(=O)(O)CCCN1CCOCC1 [MOPS, reference compound], the acetate level reached [6] is reported as about 2 g/L, the “growth in shake flask compared to other flasks” value [3] is reported as “near the levels of the formate containing flask” and the “buffering activity in pH titration” value [5] is reported as “showed buffering activity in the expected range”.
